Experimental data taken from patent US11793746B2, “Intense skin hydration systems and methods” (priority 2020, dated 2023).

Columns and labels:
[1] = tested on: PGE2 synthesis by 3T3 fibroblasts; assay: Inhibition of PGE2 synthesis by 3T3 fibroblasts (ELISA); format: cell-based; conditions: for [PGE2]: 24 h
Excerpt: This Example establishes the anti-inflammatory potential of GC-100 by measuring the inhibition of PGE2 synthesis by 3T3 fibroblasts in cell culture.
The cells are nourished in a medium enriched with arachidonic acid which leads to increased secretion of eicosanoids into the medium.
The formation of prostaglandin PGE2 will be followed as a marker of eicosanoid synthesis, because it is a stable molecule secreted preferentially by 3T3 fibroblasts. The anti-inflammatory potential of an active ingredient may then be investigated by following the decrease in secretion of PGE2 in the culture medium.
Quantification of PGE2 will be achieved using an enzyme-linked immunosorbant assay (ELISA). In principle, the PGE2 expressed by the cells in culture medium will compete with enzyme-linked PGE2 for available antibody, which is a constant. The concentration of enzyme-linked PGE2 is also constant and quantified prior to testing. The enzyme linked to PGE2 prior to testing is acetylcholinesterase. Since the quantity of PGE2 expressed by 3T3 cells in culture will vary based on the concentration of GC-100 present, the amount of antibody available to bind to the enzyme-linked PGE2 versus that produced by the 3T3 cells assumes an inverse relationship that is dependent on Brownian motion. After eliminating unreacted PGE2 through washing, substrate is added that binds to the enzyme-PGE2-antibody complex to generate a yellow color that is strongly evident using spectrophotometer set at 412 nm. The amount of light transmitted through the test sample is directly proportional to the intensity of the color change and, consequently, to the concentration of PGE2-enzyme-antibody complex.
Create a mother solution (solution #1) containing complete DMEM, alcohol, and 2×10^5 3T3 fibroblasts for plating onto 25 cm^2 culture dishes. Using a compounding dilution technique, prepare the following solutions, using 5 mL of media per plate: • Solution #2: Solution #1 plus arachidonic acid (10^−3% P/V) • Solution #3: Solution #2 plus indomethacin (0,1,10^−3% P/V) • Solution #4: Solution #2 plus GC-100 0.5% • Solution #5: Solution #2 plus GC-100 1.0%
Incubate all preparations for 24 hours at 37° C. Recover the supernatant media, and if needed deep freeze it at −20° C. before quantification. Count the number of surviving cells using a coulter counter. Establish a calibration curve of the quantity of PGE2. Quantify the supernatant media using an enzyme-linked immunosorbant assay kit specific for PGE2 (Cayman), using a Dynotech microplate reader (MR500) with a filter set at 412 nm. Calculate the % inhibition of PGE2 synthesis. The results are shown in Table 4 and FIG. 10, which is a graph showing mean suppression of PGE2 concentration in test media comprising indomethacin or GC-100.

[2] = tested on: collagen I and III synthesis; assay: [3H]-Proline incorporation as measure of collagen deposition; format: cell-based, human
Excerpt: This human skin substrate consists of neonatal foreskin fibroblasts that secrete a functionally active extracellular matrix grown on a medical-grade nylon mesh cocultured with human neonatal foreskin keratinocytes that differentiate into a multilayered epidermis.
Quantifying proline incorporation can be used to measure potential collagen deposition stimulated by a test substance. This concept is the foundation for the following experiments.

[3] = DMEM + AA + Indomethacin, column A
[4] = DMEM + AA + Indomethacin, column B
[5] = DMEM + AA + Indomethacin, column C

COc1ccc2c(c1)c(CC(=O)O)c(C)n2C(=O)c1ccc(Cl)cc1 [Indomethacin, indomethacin, reference compound]
% change of PGE2 vs DMEM + AA, MEAN ([1]; DMEM + AA + Indomethacin): −87.2%
% change of PGE2 vs DMEM + AA [1, 3]: −91%
[PGE2] [1, 3]: 0.27 pg/mL
% change of PGE2 vs DMEM + AA [1, 4]: −88%
[PGE2] [1, 4]: 0.35 pg/mL
% change of PGE2 vs DMEM + AA [1, 5]: −82.6%
[PGE2] [1, 5]: 0.50 pg/mL
suppression of PGE2 expression ([1]; indomethacin): 87%

O=C1O[C@H]([C@@H](O)CO)C(O)=C1O [ascorbic acid]
influence of ascorbic acid on proline incorporation ([2]; higher than optimal concentrations of ascorbic acid): suppress proline incorporation

ClCc1ccccc1 [benzyl chloride]
proline incorporation relative to control levels [2]: suppress proline incorporation below control levels
